Measurements as given in patent US20070207996A1, “Novel Compositions And Methods Of Treatment” (priority 2004, published 2007).

Tests used:
in vivo = settings: mouse
[1] = test system: P388 lymphocytic leukemia; assay: Drug combination efficacy study in advanced systemic P388 lymphocytic leukemia model; format: in vivo, mice
Experimental: (§1) Female B6D2F1 mice (Charles River Laboratories, Raleigh, N.C.) were used in these studies. All procedures were performed in accordance with protocols approved by the SB Institutional Animal Care and Use Committee, and met or exceeded the standards of the American Association for the Accreditation of Laboratory Animal Care (AAALAC), the United States Department of Health and Human Services and all local and federal animal welfare laws.
(§2) MAP and PCR tested P388 lymphocytic leukemia cell lines obtained originally from the National Cancer Institute Repository at Frederick Cancer Research Center, Frederick, Md., were used in these studies. P388 lymphocytic leukemia were maintained by serial i.p. transplantation in syngeneic B6D2F1 mice. […] Protocols for screening chemical agents and natural products against animal tumors and other biological systems. Cancer Chemother. […] All tumor tissues are presently in cryopreservation within the department of Molecular and Cellular Oncology.
(§3) For efficacy studies, P388 lymphocytic leukemia were harvested aseptically from the peritoneal cavity of donor mice, pooled, diluted with Earle's Balanced Salt Solution and trypan blue, and counted using a hemocytometer. An inoculum of 0.2 ml (5×10^6/ml) was implanted i.v. in the lateral tail vein of female BDF1 mice using a 25 gauge needle. The tumor inoculum was tested for bacterial contamination as determined by a 24-hr incubation in thioglycollate broth.
(§4) Each experiment included two groups of untreated tumor-bearing controls, and a titration of tumor cells in untreated animals (ranging from 10^1 to 10^5 so that drug-induced cell kill (NCK) could be calculated. Drug treatment was initiated 48 hrs after tumor implantation. Specific endpoints calculated from this model are % increase in median lifespan (% ILS) relative to the untreated control animals and log net change in tumor cell burden following therapy (NCK).

[2] = as above; format: in vivo, mice; settings: female, B6D2F1, mouse, in vivo
Experimental: as §1, §2, §3, §4

[3] = First Time in Human Study of Compound A, monotherapy once every 21 days; format: in vivo; settings: once every 21 day schedule, prior study in humans
[4] = cisplatin alone 4 mg/kg, ip q4dx3, first cisplatin study
[5] = cisplatin alone 4 mg/kg, repeat cisplatin study
[6] = 5FU 26 mg/kg alone, ip Days 2, 6, 10
[7] = 5FU 43 mg/kg alone, ip Days 2, 6, 10
[8] = 5FU 72 mg/kg alone, ip Days 2, 6, 10
[9] = 5FU 120 mg/kg alone, ip Days 2, 6, 10
[10] = ip, single agent, ip Days 2, 6, 10, gemcitabine study, read-out: MTD
[11] = ip, single agent, ip q4dx3 Days 2, 6, 10, irinotecan study, read-out: MTD
[12] = Compound A 2.6 mg/kg alone, ip Days 2, 6, 10, 5FU study
[13] = Compound A 4.3 mg/kg alone, ip Days 2, 6, 10, 5FU study
[14] = Compound A alone 4.3 mg/kg (MTD), ip q4dx3, first cisplatin study
[15] = Compound A alone 4.3 mg/kg (MTD), doxorubicin study
[16] = Compound A alone 6 mg/kg (MTD), irinotecan study
[17] = Compound A alone 7.2 mg/kg (MTD), repeat cisplatin study
[18] = Compound A alone 10 mg/kg, gemcitabine study
[19] = doxorubicin alone 12 mg/kg, ip Days 2, 6, 10
[20] = gemcitabine alone 200 mg/kg, ip Days 2, 6, 10
[21] = irinotecan alone 54 mg/kg, ip q4dx3
[22] = irinotecan alone 150 mg/kg (MTD), ip q4dx3

CCCCCOC(=O)Nc1nc(=O)n([C@@H]2O[C@H](C)[C@@H](O)[C@H]2O)cc1F [CAP, Capecitabine, reference compound]
MX-1 tumor growth (MX-1 breast carcinoma; CAP alone 500 and 250 mg/kg, daily for two 5 day cycles with 2 day rest): slight delay in MX-1 tumor growth | MTD (in vivo): 500 mg/kg

N.N.[Cl][Pt][Cl] [Cisplatin, cisplatin, reference compound]
% ILS (increase in life span) [1, 4]: 200% | log cell kill (net cell kill) [1, 4]: 3.7 log | % ILS (increase in life span) [1, 5]: 133% | log cell kill (net cell kill) [1, 5]: 1.7 log

O=c1[nH]cc(F)c(=O)[nH]1 [Compound 5FU, 5-fluorouracil, reference compound]
% ILS [1, 6]: 33% | Net Cell Kill [1, 6]: [0] log | % ILS [1, 7]: 55% | Net Cell Kill [1, 7]: [0] log | Net Cell Kill ([1]; 5FU 43 mg/kg alone, ip Days 2, 6, 10, listed as 5 FU): no log cell kill | % ILS [1, 8]: 44% | Net Cell Kill [1, 8]: [0] log | % ILS [1, 9]: 22% | Net Cell Kill [1, 9]: [0] log | toxicity at dose level ([1]; 5FU 200 mg/kg alone, ip Days 2, 6, 10): Toxic

CS(=O)(=O)O.Cc1ccc(C(=O)N(CCCN)[C@@H](c2nc3cc(Cl)ccc3c(=O)n2Cc2ccccc2)C(C)C)cc1 [Compound A, N-(3-aminopropyl)-N-[(1R)-1-[7-chloro-3,4-dihydro-4-oxo-3-(phenylmethyl)-2-quinazolinyl]-2-methylpropyl]-4-methylbenzamide, mesylate salt]
MTD ([2]; intraperitoneal, increased from 7.2 alone, repeat cisplatin study, read-out: MTD of Compound A in combination with cisplatin): 12 mg/kg | MTD ([2]; ip, single agent, ip Days 2, 6, 10, doxorubicin study, read-out: MTD): 4.3 mg/kg | MTD [2, 10]: ≥ 10 mg/kg | MTD ([2]; ip, single agent, ip q4dx3, 5FU study, read-out: MTD): 7.2 mg/kg | MTD ([2]; ip, single agent, ip q4dx3, first cisplatin study, read-out: MTD): 4.3 mg/kg | MTD ([2]; ip, single agent, ip q4dx3, repeat cisplatin study, read-out: MTD): 7.2 mg/kg | MTD [2, 11]: 6 mg/kg | % ILS [1, 12]: 78% | Net Cell Kill [1, 12]: [0] log | % ILS [1, 13]: 122% | Net Cell Kill [1, 13]: [1.1] log | % ILS ([1]; Compound A 7.2 mg/kg (MTD) alone, ip Days 2, 6, 10, 5FU study): 178% | toxicity at dose level ([1]; Compound A 12 mg/kg alone, ip Days 2, 6, 10, 5FU study): Toxic | toxicity at dose level ([1]; Compound A 20 mg/kg alone, ip Days 2, 6, 10, 5FU study): Toxic | % ILS (increase in life span) [1, 14]: 144% | log cell kill (net cell kill) [1, 14]: 1.8 log | % ILS (increase in life span) [1, 15]: 156% | log cell kill (net cell kill) [1, 15]: 1.3 log | % ILS (increase in life span) [1, 16]: 167% | log cell kill (net cell kill) [1, 16]: 3.0 log | % ILS (increase in life span) [1, 17]: 144% | log cell kill (net cell kill) [1, 17]: 2.2 log | % ILS (increase in life span) [1, 18]: 211% | log cell kill (net cell kill) [1, 18]: 6.2 log | MTD of Compound A in combination versus alone ([1]; combined with 0.86 or 1.44 mg/kg cisplatin, first cisplatin study): higher MTD | MTD [3]: 18 mg/m^2 | activity against MX-1 (MX-1 breast carcinoma; Compound A alone at MTD of 10 mg/kg, q4dx3): refractory | MTD (in vivo): 10 mg/kg

COc1cccc2c1C(=O)c1c(O)c3c(c(O)c1C2=O)C[C@@](O)(C(=O)CO)C[C@@H]3O[C@H]1C[C@H](N)[C@H](O)[C@H](C)O1 [Doxorubicin, doxorubicin, reference compound]
% ILS (increase in life span) [1, 19]: 89% | log cell kill (net cell kill) [1, 19]: no log cell kill

Nc1ccn([C@@H]2O[C@H](CO)[C@@H](O)C2(F)F)c(=O)n1 [Gemcitabine, gemcitabine, reference compound]
MTD [2, 10]: ≥ 200 mg/kg | % ILS (increase in life span) [1, 20]: 289% | log cell kill (net cell kill) [1, 20]: > 7.3 log | efficacy at lower doses ([1]; gemcitabine alone at 120 mg/kg or less): less effective

CCc1c2c(nc3ccc(OC(=O)N4CCC(N5CCCCC5)CC4)cc13)-c1cc3c(c(=O)n1C2)COC(=O)[C@]3(O)CC [Irinotecan, irinotecan, reference compound]
MTD [2, 11]: 150 mg/kg | % ILS (increase in life span) [1, 21]: 211% | log cell kill (net cell kill) [1, 21]: 4.8 log | % ILS (increase in life span) [1, 22]: > 450% | log cell kill (net cell kill) [1, 22]: > 6.9 log
